Source: patent publication US20070191367A1, “3-SPIROINDOLIN-2-ONE DERIVATIVES, PREPARATION AND THERAPEUTIC USE THEREOF” (SANOFI-AVENTIS, priority 2004, published 2007)

Biological target: T1, recombinant human vasopressin V2 receptors (Homo sapiens, UniProt P30518)
T1 construct: expressed in transfected cells; host or cells: CHO cell line (plasma membranes)
Experiment: In vitro binding assay, [H3]-AVP displacement at vasopressin V2 receptors
Conditions: plasma membranes from tissues or CHO cell line; 3.5 nM [H3]-AVP; 45 minutes at 25° C.; read-out: IC50 (concentration of product that inhibits 50% of the specific binding)
Description: The affinity of the compounds of the invention for vasopressin V2 receptors was measured in in vitro binding assays, as described in J. Pharmacol. Exp. Ther., (2002), 300, pp. 1122-1130.
Plasma membranes (approximately 20 μg/ml) originating from tissues or the CHO cell line expressing recombinant human vasopressin V2 receptors are incubated for 45 minutes at 25° C. in 200 μl of TRIS-HCl buffer (50 mM; pH 8.2) containing 2 mM of MgCl2, 1 mM of EDTA, 0.1% of BSA, 1 mg/ml of bacitracin and 3.5 nM of [H^3]-AVP. The reaction is stopped by filtration and washing over GF/B filters. The nonspecific binding is determined in the presence of 1 μM of AVP. The compounds of the invention, dissolved beforehand at the concentration of 10^−2 M in DMSO, are tested in a dilution range.
For each concentration, the results are expressed as percentage inhibition of specific binding. An IC50 (concentration of product that inhibits 50% of the specific binding) is determined for each of the products using the “RS1 binding” program (BBN Domain, Cambridge, Mass).

T1 sequence (P30518 whole entry): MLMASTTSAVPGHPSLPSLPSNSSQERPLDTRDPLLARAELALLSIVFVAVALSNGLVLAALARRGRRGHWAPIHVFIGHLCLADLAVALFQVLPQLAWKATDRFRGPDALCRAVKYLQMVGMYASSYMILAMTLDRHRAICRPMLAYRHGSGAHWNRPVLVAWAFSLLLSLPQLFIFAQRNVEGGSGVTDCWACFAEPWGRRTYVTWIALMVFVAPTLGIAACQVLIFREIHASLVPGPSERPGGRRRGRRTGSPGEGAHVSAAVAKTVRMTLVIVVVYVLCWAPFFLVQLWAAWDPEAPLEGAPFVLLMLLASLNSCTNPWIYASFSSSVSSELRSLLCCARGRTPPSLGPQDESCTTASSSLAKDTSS

SMILES: CCOc1ccc2c(c1)C1(CCC(OCC(=O)N3CCOCC3)CC1)C(=O)N2S(=O)(=O)c1ccc(C(=O)NC(C)(C)C)cc1OC (stereo not shown) [Example]
- IC50: ~7.3 nM
